Reference: patent US20040072848A1, “Methods of treating irritable bowel syndrome and functional dyspepsia” (priority 2003, published 2004)

Test system: Zymosan-sensitized rats
Experiment: Rodent model of zymosan-induced hyperalgesia: visceromotor response to colorectal distention
Format: in vivo, Sprague-Dawley rats
Settings: two doses (time 0 and 16 h), intracolonic zymosan, CRD 80 mm Hg, 20 s, 4 h after zymosan, expressed as percentage of control, baseline = 100%
Description: FIG. 1 is a graphical representation of the results of a study conducted in Zymosan-sensitized rats comparing the effect of (E)-4-(1,3-bis(cyclohexylmethyl)-1,2,3,6-tetrahydro-2,6-dioxo-9H-purin-8-yl)cinnamic acid nonaethylene glycol methyl ether ester ([…] and 25 mg/kg) versus vehicle. Results are reported as response to colorectal distention (CRD) (as a percent of control) with increasing dosage of 0, 12.5, and 25 mg/kg of compound (sensitized --▪--) as compared to baseline (--♦--).
Protocol for Evaluation of (E)-4-(1,3-bis(cyclohexylmethyl)-1,2,3,6-tetrahydro-2,6-dioxo-9H-purin-8-yl)cinnamic acid nonaethylene glycol methyl ether ester in a Rodent Model of Zymosan-Induced Hyperalgesia […]
The descending colon and rectum were distended by pressure-controlled inflation of a 7-8-cm-long flexible latex balloon tied around a flexible tube. […] Intracolonic pressure was continuously monitored by the aid of a pressure control device. Response was, quantified as the visceromotor response (VMR), a contraction of the abdominal and hindlimb musculature. EMG activity produced by contraction of the external oblique musculature was quantified using Spike2 software (Cambridge Electronic Designs). Each distension trial lasted 60 seconds, and EMG activity was quantitated in 1-second bins for 20 seconds before distension (baseline), during distention, and 20 seconds after distention. […]

SMILES: COCCOCCOCCOCCOCCOCCOCCOCCOCCOC(=O)/C=C/c1ccc(-c2nc3c(=O)n(CC4CCCCC4)c(=O)n(CC4CCCCC4)c3[nH]2)cc1 [(E)-4-(1,3-bis(cyclohexylmethyl)-1,2,3,6-tetrahydro-2,6-dioxo-9H-purin-8-yl)cinnamic acid nonaethylene glycol methyl ether ester]
- response to colorectal distention (CRD), visceromotor response (12.5 mg/kg oral gavage): decreased the response to colorectal distention down to baseline levels
- response to colorectal distention (CRD), visceromotor response (25 mg/kg oral gavage): decreased the response to colorectal distention down to baseline levels
